The numbers were not newly measured in patent publication US20240057588A1, “HERBICIDAL FORMULATION IN THE FORM OF MICROEMULSION” (RED SURCOS COLOMBIA LTDA, priority 2018, published 2024), which cites them from elsewhere.

Molecules are shown by their SMILES.

The conditions of series [1]: qualitative.

Turning to `O=C1CCCCC1` [Cyclohexanone], the Solubility in water entry is “slightly soluble”. In series [1], the “Solubility in organic solvents / other media” value is “soluble in most organic solvents”. For `CN1CCCC1=O` [N-Methylpyrrolidone], the Solubility in water result was “miscible”. For the same compound, the “Solubility in organic solvents / other media” value in series [1] was “Miscible”. As for `O=C(O)CNCP(=O)(O)O` [glyphosate, reference compound], the Solubility in water entry is given as “very low”.
